Measurements from PMC6121034 (Frontiers in Cellular Neuroscience, 2018).

Experiments:
Format in all cases: cell-based
[1] = biological target: T1, α1β2γ2 GABAA receptor (α1 subunit), ALA mutant (Rattus norvegicus, UniProt P18508+P62813+P63138, P62813:F91A); test: whole-cell patch clamp, currents evoked by […] GABA; parameters: dose or concentration left out as unconfirmed
T1 construct: gene Gabra1; rat α1/β2/γ2L subunits expressed in HEK-293 cells; with GABAA receptor β2 (Gabrb2) and γ2L (Gabrg2) subunits

[2] = biological target: T2, α1β2γ2 GABAA receptor (α1 subunit), LEU mutant (Rattus norvegicus, UniProt P18508+P62813+P63138, P62813:F91L); test: whole-cell patch clamp, currents evoked by […] GABA
T2 construct: gene Gabra1; rat α1/β2/γ2L subunits expressed in HEK-293 cells; with GABAA receptor β2 (Gabrb2) and γ2L (Gabrg2) subunits

[3] = biological target: T3, α1β2γ2 GABAA receptor (α1 subunit) (Rattus norvegicus, UniProt P18508+P62813+P63138); test: whole-cell patch clamp dose-response, partial agonist
T3 construct: gene Gabra1; rat α1/β2/γ2L subunits expressed in HEK-293 cells; with GABAA receptor β2 (Gabrb2) and γ2L (Gabrg2) subunits
T3 sequence (P62813 28-455): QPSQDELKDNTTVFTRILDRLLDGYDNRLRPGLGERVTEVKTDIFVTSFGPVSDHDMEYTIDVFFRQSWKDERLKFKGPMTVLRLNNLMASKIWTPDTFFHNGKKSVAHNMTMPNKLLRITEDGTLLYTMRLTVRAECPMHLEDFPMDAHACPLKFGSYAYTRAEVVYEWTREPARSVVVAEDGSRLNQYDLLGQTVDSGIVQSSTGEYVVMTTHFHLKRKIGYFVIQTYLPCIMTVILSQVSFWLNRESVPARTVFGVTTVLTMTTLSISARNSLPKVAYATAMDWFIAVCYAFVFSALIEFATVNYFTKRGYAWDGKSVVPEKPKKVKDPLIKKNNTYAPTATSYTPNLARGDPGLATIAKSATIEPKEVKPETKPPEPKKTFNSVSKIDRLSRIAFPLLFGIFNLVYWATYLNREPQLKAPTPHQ
T3 sequence (P63138 26-474): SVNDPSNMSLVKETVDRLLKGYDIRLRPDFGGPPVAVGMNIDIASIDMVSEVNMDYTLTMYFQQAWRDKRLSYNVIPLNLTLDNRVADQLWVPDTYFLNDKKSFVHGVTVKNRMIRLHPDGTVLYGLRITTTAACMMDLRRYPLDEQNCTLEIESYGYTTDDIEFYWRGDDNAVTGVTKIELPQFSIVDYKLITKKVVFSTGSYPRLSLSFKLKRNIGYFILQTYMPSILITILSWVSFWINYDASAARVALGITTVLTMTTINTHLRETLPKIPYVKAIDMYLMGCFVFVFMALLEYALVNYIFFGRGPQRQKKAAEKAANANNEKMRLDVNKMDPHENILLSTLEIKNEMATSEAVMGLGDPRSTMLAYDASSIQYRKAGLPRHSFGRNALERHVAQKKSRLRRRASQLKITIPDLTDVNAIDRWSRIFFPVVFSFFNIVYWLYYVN
T3 sequence (P18508 39-466): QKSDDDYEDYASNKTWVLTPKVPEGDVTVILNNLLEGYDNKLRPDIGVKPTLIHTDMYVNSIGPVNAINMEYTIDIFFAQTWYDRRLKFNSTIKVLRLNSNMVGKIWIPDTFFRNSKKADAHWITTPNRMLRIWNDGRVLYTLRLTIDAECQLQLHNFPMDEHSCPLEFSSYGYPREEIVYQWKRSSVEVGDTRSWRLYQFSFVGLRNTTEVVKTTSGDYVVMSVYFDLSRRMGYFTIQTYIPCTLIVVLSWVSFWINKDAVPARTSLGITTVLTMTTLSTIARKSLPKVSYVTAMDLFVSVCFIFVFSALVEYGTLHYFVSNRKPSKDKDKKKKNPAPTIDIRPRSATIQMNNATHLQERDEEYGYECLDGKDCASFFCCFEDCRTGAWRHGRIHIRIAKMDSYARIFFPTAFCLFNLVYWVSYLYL

T1 sequence (P62813 28-455 F91A): as the sequence (P62813 28-455) above, with F64A counted along it
T1 sequence (P63138 26-474): as the sequence (P63138 26-474) above
T1 sequence (P18508 39-466): as the sequence (P18508 39-466) above
T2 sequence (P62813 28-455 F91L): as the sequence (P62813 28-455) above, with F64L counted along it
T2 sequence (P63138 26-474): as the sequence (P63138 26-474) above
T2 sequence (P18508 39-466): as the sequence (P18508 39-466) above

SMILES | whole-cell patch clamp, currents evoked by GABA [1] | whole-cell patch clamp, currents evoked by 100 mM GABA [2] | EC50 [3]
NCCCC(=O)O [GABA] | Typical traces of current responses to saturating [GABA] application (black traces) | Typical traces of current responses to saturating [GABA] application (black traces) | –
O=S(=O)(O)C1CCNCC1 [P4S, piperidine-4-sulfonic acid] | – | – | 46 µM
